# Data published in patent US20070249526A1, “PROCESS FOR THE PREPARATION OF CYCLIC PEPTIDES” (priority 2003, published 2007).
# How the values were obtained:
# [1] = system: rat models of human disease; conditions: literature refs 10-15; cited from earlier work
# physchem = type: physicochemical
# Experimental: The crude product of Example 15 was purified by prep HPLC using 0.5% AcOH in water and 0.5% AcOH in 90% ACN in water as buffers. The crude product was purified in a gradient program and major fraction was collected. After lyophilization, it gave a white powder which failed the solubility test at 10 mg/ml. ^19F NMR confirmed that there were still two TFA salts in the formula (FIG. 1). This product was repurified on the prepHPLC once more, the major fraction was collected and lyophilized to give 3D53. 12 mg of this product dissolved in 1 ml water gave a clear solution.
# human C5a receptor [2] = target: T1, human C5a receptor (Homo sapiens, UniProt P21730); conditions: literature refs 6-9; cited from earlier work
# T1 construct: host or cells: human cells; neutrophils, macrophages, polymorphonuclear leukocytes
# T1 sequence (P21730 1-350): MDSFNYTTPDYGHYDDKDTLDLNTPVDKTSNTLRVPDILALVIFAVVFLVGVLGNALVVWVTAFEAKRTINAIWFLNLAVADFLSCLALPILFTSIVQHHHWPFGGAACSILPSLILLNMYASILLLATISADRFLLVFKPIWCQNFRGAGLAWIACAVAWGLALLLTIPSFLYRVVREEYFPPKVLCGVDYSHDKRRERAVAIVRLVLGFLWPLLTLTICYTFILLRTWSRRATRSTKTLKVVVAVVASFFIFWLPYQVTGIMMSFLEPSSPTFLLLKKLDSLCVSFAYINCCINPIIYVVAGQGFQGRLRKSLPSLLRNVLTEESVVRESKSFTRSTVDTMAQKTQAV
# human C5a receptor [3] = target: T1, human C5a receptor; conditions: literature refs 6-9; cited from earlier work; remark: listed apart in the source
structure (smiles),measurement,setting,value
"CC(=O)N[C@@H](Cc1ccccc1)C(=O)N[C@H]1CCCNC(=O)[C@H](CCCNC(=N)N)NC(=O)C(Cc2c[nH]c3ccccc23)NC(=O)[C@@H](CC2CCCCC2)NC(=O)C2CCCN2C1=O (stereo partly drawn) [Compound 1, Ac-Phe[Orn-Pro-D-Cha-Trp-Arg]]",inhibition in vivo in rat models of human disease,[1],potent inhibition
same,solubility,physchem,< 10000 µg/mL
same,amount dissolved giving a clear solution,"physchem; in 1 ml water, product repurified by prepHPLC, no TFA salt by 19F NMR",≥ 12 mg
same,"inhibition in vitro of C5a-mediated activation of neutrophils and macrophages, chemotaxis, and cytokine release",human C5a receptor [2],potent inhibition
same,inhibition in vitro of C5a binding to human cells,human C5a receptor [3],potent inhibition
